# Key:
# C5AR1 = target: T1, C5AR1 (Homo sapiens, UniProt P21730); test: In vitro assay: CHO-K1 C5AR1 beta-arrestin cell line (PathHunter), antagonism of C5a; assay type: cell-based; conditions: 1-10 nM C5a agonist; geometric mean; read-out: antagonistic activity (IC50)
# T1 construct: host or cells: CHO-K1
# T1 sequence (P21730 1-350): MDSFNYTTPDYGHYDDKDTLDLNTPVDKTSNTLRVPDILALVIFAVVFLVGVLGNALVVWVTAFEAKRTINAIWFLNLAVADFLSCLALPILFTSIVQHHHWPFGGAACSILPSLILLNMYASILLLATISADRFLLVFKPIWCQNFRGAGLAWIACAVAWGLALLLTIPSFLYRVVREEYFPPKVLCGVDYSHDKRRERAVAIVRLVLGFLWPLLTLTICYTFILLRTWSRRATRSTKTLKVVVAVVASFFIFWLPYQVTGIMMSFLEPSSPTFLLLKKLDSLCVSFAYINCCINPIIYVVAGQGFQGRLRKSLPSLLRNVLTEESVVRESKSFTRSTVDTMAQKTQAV
# Protocol: Adherent cells (CHO-K1 C5AR1 beta-arrestin cell line, DiscoverX, CA USA) are washed with PBS, detached by incubation with Dissociation Buffer (Gibco Cat #13151-014, 2 ml per 165 cm2 dish) for 3 minutes, then washed with 10 ml PBS (without Mg++ and Ca++) and counted. 7500 cells/384-well are seeded in 384-well plates (Cell culture plate MTP384 white Polystyrene, Corning, Cat #3570) in 20 μl/well Cell plating medium (F12 HAMs/10% FCS/1% P/S) and incubated at 37° C./5% CO2/24 h.
# 5 μl Antagonist at 6-fold end concentration or DMSO control is added to assay medium and subsequently 5 μl 1-10 nM C5a agonist at 6 fold end concentration. Cells are centrifuged for 1 min at 1000 rpm and incubated for 1.5 hour in at 37° C. Plates are equilibrated at room temperature for several minutes before adding 12 μl/well Detection Reagent (PathHunter Detection Kit, DiscoverX, Cat #93-0001). Plates are centrifuged for 1 min at 1000 rpm and incubated for 45 minutes at RT before being measured on a Fluostar Optima, BMG Labtech. IC50 values are calculated from a serial dilution range of antagonist using inhouse software and given in nmol/l.
# The calculated IC50 values may fluctuate depending on the daily cellular assay performance. Fluctuations of this kind are known to those skilled in the art. Average IC50 values from several measurements are given as geometric mean values.
# [1] = log P measured in octanol/phosphate buffer saline pH 7.4; assay type: physicochemical
# Description: […]
# [2] = Stability testing of solid COMPOUND (powder in glass vial, HPLC 1 area vs reference stored at -20° C.); assay type: physicochemical; conditions: 260 nm
# Protocol: Samples were directly analyzed by HPLC without dilution (expected concentration 1000 μg/mL). The HPLC area of each treated sample was compared to the HPLC area of the reference samples.
# HPLC system: High pressure mixing Shimadzu Prominence (HPLC_08_DAD); Flow: 1.5 mL/min; Column temperature: 50° C.; Autosampler temperature: 25° C.; Injection volume: 3.0 μL; Column: Waters XBridge BEH C18 2.5 μm 2.1*50 mm Column XP; Wavelength: DAD 260 nm
# [3] = Gravimetric vapour sorption (GVS) hygroscopicity; assay type: physicochemical; conditions: 25° C., mass change 40% to 80% RH, first adsorption scan
# Protocol: Measurements are performed on a multi sample instrument SPS-100n (ProUmid, Ulm, Germany) operated in stepping mode at 25° C. The sample is allowed to equilibrate at 40% RH before starting a pre-defined humidity program (40-0-95-0-95-40% RH, steps of 5% ARH and with a maximal equilibration time of 24 hours per step are applied). About 20 to 30 mg of each sample is used. The hygroscopic classification is done on the basis of the European Pharmacopeia Technical Guide (1999, page 86), e.g., Non-hygroscopic: increase in mass is less than 0.2% mass/mass; slightly hygroscopic: increase in mass is less than 2% and equal to or greater than 0.2% mass/mass; hygroscopic: increase in mass is less than 15% and equal to or greater than 2% mass/mass. The mass change between 40% relative humidity and 80% relative humidity in the first adsorption scan is considered.
smiles,measurement,setting,value
"Cc1cccc(F)c1N1CCC(N2Cc3cn(CC(C)(F)F)nc3N(Cc3ccccc3C(F)(F)F)C2=O)CC1 [COMPOUND, 2-(2,2-Difluoro-propyl)-5-[1-(2-fluoro-6-methyl-phenyl)-piperidin-4-yl]-7-(2-trifluoromethyl-benzyl)-2,4,5,7-tetrahydro-pyrazolo[3,4-d]pyrimidin-6-one]",IC50,C5AR1,11 nM
same,logP,[1],6.9
"Cc1cccc(F)c1N1CCC(N2Cc3cn(CC(C)(F)F)nc3N(Cc3ccccc3C(F)(F)F)C2=O)CC1 [Amorphous, 2-(2,2-Difluoro-propyl)-5-[1-(2-fluoro-6-methyl-phenyl)-piperidin-4-yl]-7-(2-trifluoromethyl-benzyl)-2,4,5,7-tetrahydro-pyrazolo[3,4-d]pyrimidin-6-one]",HPLC 1 area compared to a reference that was stored at −20° C. for the same amount of time,[2]; closed vial for 30 days at 40° C. and 75% relative humidity,79%
same,HPLC 1 area compared to a reference that was stored at −20° C. for the same amount of time,[2]; closed vial for 30 days at room temperature and day light exposure,57%
"Cc1cccc(F)c1N1CCC(N2Cc3cn(CC(C)(F)F)nc3N(Cc3ccccc3C(F)(F)F)C2=O)CC1 [COMPOUND in crystalline form 1, 2-(2,2-Difluoro-propyl)-5-[1-(2-fluoro-6-methyl-phenyl)-piperidin-4-yl]-7-(2-trifluoromethyl-benzyl)-2,4,5,7-tetrahydro-pyrazolo[3,4-d]pyrimidin-6-one]",Hygroscopicity as measured by GVS,[3],non-hygroscopic
same,HPLC 1 area compared to a reference that was stored at −20° C. for the same amount of time,"[2]; closed vial for 30 days at 40° C. and 75% relative humidity, listed as Form 1",100%
same,HPLC 1 area compared to a reference that was stored at −20° C. for the same amount of time,"[2]; closed vial for 30 days at room temperature and day light exposure, listed as Form 1",100%
